# “And” between values parts separate entries of the source, which are not always exact repeats. Equal values may be shown once. Inconclusive results and toxic doses are left out.
# Tested on: P388 leukemia ip, CD2F1 mice, survival T/C
# Assay: NCI In Vivo Anticancer Drug Screen. Data for tumor model P388 Leukemia (intraperitoneal) in CD2F1 (CDF1) mice
# Settings: endpoint: median survival time, higher = longer survival
# How it was run: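 Mice carrying the transplanted tumor received test compound or vehicle. Survival was recorded in each group, and the value is the treated-group measurement divided by that of the vehicle-treated control group.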
# [1] = dose: 60.0 mg/kg/injection, schedule: Q01DX005 (ip), vehicle: saline with Tween-80
# [2] = dose: 120.0 mg/kg/injection, schedule: Q01DX005 (ip), vehicle: saline with Tween-80
# [3] = dose: 240.0 mg/kg/injection, schedule: Q01DX005 (ip), vehicle: saline with Tween-80
# [4] = dose: 100.0 mg/kg/injection, schedule: Q01DX005 (ip), vehicle: saline with Tween-80
# [5] = dose: 200.0 mg/kg/injection, schedule: Q01DX005 (ip), vehicle: saline with Tween-80
# [6] = dose: 50.0 mg/kg/injection, schedule: Q01DX005 (ip), vehicle: saline with Tween-80
structure (smiles),measurement,setting,value
OC1(c2ccccc2)C(c2ccccc2)=C(c2ccccc2)C(c2ccc(CCCCCCCCc3ccc(C4=C(c5ccccc5)C(O)(c5ccccc5)C(c5ccccc5)=C4c4ccccc4)cc3)cc2)=C1c1ccccc1 (stereo unspecified),T/C,"dose: 100.0 mg/kg/injection, schedule: Q01DX001 (ip), vehicle: Klucel (hydroxypropylcellulose) (HPC)",86 % of control
same,T/C,"dose: 200.0 mg/kg/injection, schedule: Q01DX001 (ip), vehicle: Klucel (hydroxypropylcellulose) (HPC)",89 % of control
O=C1OC(C2OC(=O)C(=O)C2C(=O)c2cccc([N+](=O)[O-])c2)C(C(=O)c2cccc([N+](=O)[O-])c2)C1=O (stereo unspecified),T/C,[1],100 % of control
same,T/C,[2],105 % of control
same,T/C,[3],100 % of control
O=c1[nH]cc(CN(CCO)CCO)c(=O)[nH]1,T/C,"dose: 50.0 mg/kg/injection, schedule: Q01DX005 (ip), vehicle: saline",106 % of control
same,T/C,"dose: 100.0 mg/kg/injection, schedule: Q01DX005 (ip), vehicle: saline",105 % of control
same,T/C,"dose: 200.0 mg/kg/injection, schedule: Q01DX005 (ip), vehicle: saline",99 % of control
Cc1c(-c2ccc(C(=N)N)cc2)oc(-c2ccc(C(=N)N)cc2)c1C,T/C,"dose: 3.13 mg/kg/injection, schedule: Q01DX009 (ip), vehicle: saline with Tween-80",104 % of control
same,T/C,"dose: 6.25 mg/kg/injection, schedule: Q01DX009 (ip), vehicle: saline with Tween-80",112 % of control
CCCC(=O)N(C)O,T/C,[4],108 % of control
same,T/C,[5],103 % of control
C/C(=N/NC(N)=O)c1cn[nH]c1C,T/C,"dose: 60.0 mg/kg/injection, schedule: Q01DX005 (ip), vehicle: Klucel (hydroxypropylcellulose) (HPC)",117 % of control
same,T/C,"dose: 120.0 mg/kg/injection, schedule: Q01DX005 (ip), vehicle: Klucel (hydroxypropylcellulose) (HPC)",124 % of control
CCOC(=O)c1nc(SC)n(C)c1C(=O)OCC,T/C,[1],100 % of control
same,T/C,[2],100 % of control
same,T/C,[3],105 % of control
COc1ccc(/C=C/C(C)=N/NC(N)=O)cc1,T/C,[6],101 % of control
same,T/C,[4],94 % of control
same,T/C,[5],96 % of control
CCN(CCO)CC1CCCC2CCCCC21 (stereo unspecified),T/C,"dose: 60.0 mg/kg/injection, schedule: Q01DX005 (ip), vehicle: saline",92 % of control
same,T/C,"dose: 120.0 mg/kg/injection, schedule: Q01DX005 (ip), vehicle: saline",98 % of control
COC(=O)C1CC2c3ccccc3C1c1ccccc12 (stereo unspecified),T/C,[1],99 % of control
same,T/C,[2],99 % of control
same,T/C,[3],101 % of control
CCCCN=Cc1ccccc1O.CCCCN=Cc1ccccc1O.[Zn],T/C,"dose: 50.0 mg/kg/injection, schedule: Q01DX009 (ip), vehicle: Klucel (hydroxypropylcellulose) (HPC)",98 % of control
same,T/C,"dose: 100.0 mg/kg/injection, schedule: Q01DX009 (ip), vehicle: Klucel (hydroxypropylcellulose) (HPC)",112 % of control
CCOC(=O)/C(Cl)=C1\SN(C(=O)OCC)N=C1C,T/C,[6],99 % of control
same,T/C,[4],95 % of control
same,T/C,[5],96 % of control
O=NNc1nc2ccccc2s1,T/C,"dose: 1.56 mg/kg/injection, schedule: Q01DX009 (ip), vehicle: water",97 % of control
same,T/C,"dose: 3.12 mg/kg/injection, schedule: Q01DX009 (ip), vehicle: water",100 % of control and 105 % of control
same,T/C,"dose: 6.25 mg/kg/injection, schedule: Q01DX009 (ip), vehicle: water",106 % of control and 109 % of control
same,T/C,"dose: 12.5 mg/kg/injection, schedule: Q01DX009 (ip), vehicle: water",100 % of control and 92 % of control
same,T/C,"dose: 25.0 mg/kg/injection, schedule: Q01DX009 (ip), vehicle: water",102 % of control and 106 % of control
same,T/C,"dose: 50.0 mg/kg/injection, schedule: Q01DX009 (ip), vehicle: water",92 % of control

# From PubChem BioAssay AID330 (DTP/NCI, 2004)
